In the supplement of paper PMC11451515:

Assays:
Conditions in all cases: 48 h
[1] = tested on: SEM cells; experiment: cell viability relative to DMSO control; higher = less cytotoxic
In short: (§1)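 Three leukemia lines were tested: NOMO1 and SEM at 500 cells/well and P12-Ichikawa at 1000 cells/well. Each was adapted for at least four passages in each medium and seeded in 5 μl in 1536-well plates, and library compounds in DMSO were pin-dosed from 47 μM to 0.79 nM in 11 threefold steps. After 48 h at 37°C, CellTiter-Glo One luminescence was read. Viability is a percentage relative to DMSO wells on each plate, with cell-free wells as background.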

[2] = tested on: NOMO1; experiment: AUC of viability dose-response curve (% viability x log10 dose units); higher = less sensitive
In short: (§2)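 Viability of medium-adapted leukemia cells was measured by CellTiter-Glo One luminescence after 48 h at 37°C with library compounds in DMSO. Doses were 11 threefold steps from 47 μM to 0.79 nM, in 1536-well plates at 500 or 1000 cells/well. Signals were normalised per plate to DMSO and cell-free wells and fitted with a four-parameter log-logistic model on log10 dose. Area under the curve was integrated by trapezoidal rule, with curves exceeding full viability scaled and failed quality-control curves removed.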

[3] = tested on: P12-Ichikawa; experiment: as above
In short: as §2

[4] = tested on: SEM cells; experiment: as above
In short: as §2

[5] = tested on: NOMO1; experiment: cell viability relative to DMSO control; higher = less cytotoxic
In short: as §1

[6] = tested on: P12-Ichikawa; experiment: as above
In short: as §1

CC(C)C[C@H](NC(=O)CNC(=O)c1cc(Cl)ccc1Cl)B1OC(=O)CC(CC(=O)O)(C(=O)O)O1 (some centres not stated)
cell viability [%], [1]
Conditions | HPLM + 10% dialyzed FBS | RPMI 5 mM glucose + 10% FBS
0.000781 µM | 101 | 120
0.00234 µM | 120 | 132
0.00702 µM | 125 | 124
0.0211 µM | 145 | 125
0.0632 µM | 128 | 99.9
0.19 µM | 16 | 13.3
0.569 µM | 8.29 | 8.91
1.71 µM | 7.41 | 8.18
5.12 µM | 5.78 | 6.61
15.4 µM | 4.49 | 4.78
46.1 µM | 4.53 | 4.54

AUC of viability dose-response curve
Conditions | [2] | [3] | [4]
HPLM + 10% dialyzed FBS | 276 | 270 | 231
RPMI 5 mM glucose + 10% FBS | 278 | 269 | 221
RPMI 5 mM glucose + 10% dialyzed FBS | 280 | 269 | 235

Cc1ccc(CN2CCNCC2)cc1NC(=O)CNc1ccc(F)c(F)c1
AUC of viability dose-response curve
Conditions | [2] | [3] | [4]
HPLM + 10% dialyzed FBS | 435 | 454 | 447
RPMI 5 mM glucose + 10% FBS | 459 | 457 | 464
RPMI 5 mM glucose + 10% dialyzed FBS | 444 | 445 | 431

NC(CO)(CO)CCc1ccc(Sc2cccc(OCc3ccccc3)c2)cc1Cl
cell viability [%]
Conditions | [1] | [5] | [6]
HPLM + 10% dialyzed FBS, 0.000781 µM | 89.6 | 108 | 99.1
HPLM + 10% dialyzed FBS, 0.00234 µM | 95.8 | 107 | 101
HPLM + 10% dialyzed FBS, 0.00702 µM | 95.2 | 118 | 110
HPLM + 10% dialyzed FBS, 0.0211 µM | 56.6 | 118 | 114
HPLM + 10% dialyzed FBS, 0.0632 µM | 99.1 | 124 | 115
HPLM + 10% dialyzed FBS, 0.19 µM | 121 | 129 | 122
HPLM + 10% dialyzed FBS, 0.569 µM | 6.82 | 111 | 88.5
HPLM + 10% dialyzed FBS, 1.71 µM | 72.9 | 121 | 106
HPLM + 10% dialyzed FBS, 5.12 µM | 103 | 63.1 | 76.2
HPLM + 10% dialyzed FBS, 15.4 µM | 53.9 | 38.6 | 18.4
HPLM + 10% dialyzed FBS, 46.1 µM | 6.98 | 8.35 | 6.24
RPMI 5 mM glucose + 10% FBS, 0.000781 µM | 82.7 | 104 | 91.8
RPMI 5 mM glucose + 10% FBS, 0.00234 µM | 99 | 103 | 99.7
RPMI 5 mM glucose + 10% FBS, 0.00702 µM | 94.9 | 116 | 101
RPMI 5 mM glucose + 10% FBS, 0.0211 µM | 49.6 | 122 | 111
RPMI 5 mM glucose + 10% FBS, 0.0632 µM | 104 | 107 | 102
RPMI 5 mM glucose + 10% FBS, 0.19 µM | 114 | 107 | 102
RPMI 5 mM glucose + 10% FBS, 0.569 µM | 7.12 | 117 | 86.4
RPMI 5 mM glucose + 10% FBS, 1.71 µM | 67.1 | 115 | 104
RPMI 5 mM glucose + 10% FBS, 5.12 µM | 91.7 | 120 | 72.1
RPMI 5 mM glucose + 10% FBS, 15.4 µM | 34.3 | 40.1 | 34.9
RPMI 5 mM glucose + 10% FBS, 46.1 µM | 7.48 | 5.44 | 5.17
RPMI 5 mM glucose + 10% dialyzed FBS, 0.000781 µM | 80.3 | 93.5 | 101
RPMI 5 mM glucose + 10% dialyzed FBS, 0.00234 µM | 105 | 103 | 112
RPMI 5 mM glucose + 10% dialyzed FBS, 0.00702 µM | 99.6 | 99.1 | 99.6
RPMI 5 mM glucose + 10% dialyzed FBS, 0.0211 µM | 85.2 | 107 | 116
RPMI 5 mM glucose + 10% dialyzed FBS, 0.0632 µM | 111 | 114 | 113
RPMI 5 mM glucose + 10% dialyzed FBS, 0.19 µM | 124 | 109 | 109
RPMI 5 mM glucose + 10% dialyzed FBS, 0.569 µM | 8.44 | 105 | 89.9
RPMI 5 mM glucose + 10% dialyzed FBS, 1.71 µM | 60.7 | 115 | 100
RPMI 5 mM glucose + 10% dialyzed FBS, 5.12 µM | 105 | 113 | 70.3
RPMI 5 mM glucose + 10% dialyzed FBS, 15.4 µM | 45.6 | 104 | 45.7
RPMI 5 mM glucose + 10% dialyzed FBS, 46.1 µM | 13.2 | 5.71 | 5.62

AUC of viability dose-response curve
Conditions | HPLM + 10% dialyzed FBS | RPMI 5 mM glucose + 10% FBS | RPMI 5 mM glucose + 10% dialyzed FBS
[2] | 397 | 424 | 453
[3] | 400 | 408 | 400

CCc1cccc(CC)c1NC(=O)N1Cc2[nH]nc(NC(=O)c3ccc(N4CCN(C)CC4)cc3)c2C1
[1], HPLM + 10% dialyzed FBS
Conditions | cell viability [%]
0.000781 µM | 100
0.00234 µM | 121
0.00702 µM | 130
0.0211 µM | 128
0.0632 µM | 133
0.19 µM | 138
0.569 µM | 113
1.71 µM | 89.2
5.12 µM | 57.5
15.4 µM | 22.1
46.1 µM | 7.86

AUC of viability dose-response curve
Conditions | [2] | [3] | [4]
HPLM + 10% dialyzed FBS | 415 | 356 | 372
RPMI 5 mM glucose + 10% FBS | 403 | 361 | 341
RPMI 5 mM glucose + 10% dialyzed FBS | 394 | 373 | 344

CC(=O)Nc1nc(C)c(-c2ccc(Cl)c([S+](=O)([O-])NCCO)c2)s1
AUC of viability dose-response curve
Conditions | [2] | [3] | [4]
HPLM + 10% dialyzed FBS | 364 | 374 | 366
RPMI 5 mM glucose + 10% FBS | 385 | 326 | 345
RPMI 5 mM glucose + 10% dialyzed FBS | 362 | 340 | 344

CC(C)Nc1cc(-c2c[nH]c(C(=O)N[C@H](CO)c3cccc(Cl)c3)c2)c(Cl)cn1
[1], HPLM + 10% dialyzed FBS
Conditions | cell viability [%]
0.000781 µM | 105
0.00234 µM | 118
0.00702 µM | 125
0.0211 µM | 123
0.0632 µM | 141
0.19 µM | 133
0.569 µM | 144
1.71 µM | 120
5.12 µM | 98.7
15.4 µM | 94.1
46.1 µM | 11.3

AUC of viability dose-response curve
Conditions | [2] | [3] | [4]
HPLM + 10% dialyzed FBS | 393 | 423 | 436
RPMI 5 mM glucose + 10% FBS | 383 | 396 | 422
RPMI 5 mM glucose + 10% dialyzed FBS | 371 | 394 | 400

C[N]1C2=C(SC(=C2)[S+](C)[O-])C\3=C1C(=O)N(CC4=CC(=CC=C4)N)\N=C3 (configuration not stated)
AUC of viability dose-response curve
Conditions | HPLM + 10% dialyzed FBS | RPMI 5 mM glucose + 10% FBS | RPMI 5 mM glucose + 10% dialyzed FBS
[3] | 414 | 404 | 392
[4] | 426 | 426 | 403

O=C(Nc1nc2ccccc2n1CCN1CCOCC1)c1cccc([N+](=O)[O-])c1
AUC of viability dose-response curve
Conditions | [2] | [3] | [4]
HPLM + 10% dialyzed FBS | 447 | 462 | 474
RPMI 5 mM glucose + 10% FBS | 465 | 445 | 465
RPMI 5 mM glucose + 10% dialyzed FBS | 470 | 449 | 444

CN(C)NC(=O)CCC(=O)O
AUC of viability dose-response curve
Conditions | [2] | [3] | [4]
HPLM + 10% dialyzed FBS | 464 | 464 | 468
RPMI 5 mM glucose + 10% FBS | 467 | 464 | 464
RPMI 5 mM glucose + 10% dialyzed FBS | 471 | 466 | 474

C=CCNC1=C2C[C@@H](C)C[C@H](OC)[C@H](O)[C@@H](C)/C=C(\C)[C@H](OC(N)=O)[C@@H](OC)/C=C\C=C(/C)C(=O)NC(=CC1=O)C2=O
AUC of viability dose-response curve
Conditions | [2] | [3] | [4]
HPLM + 10% dialyzed FBS | 390 | 403 | 310
RPMI 5 mM glucose + 10% FBS | 389 | 380 | 285
RPMI 5 mM glucose + 10% dialyzed FBS | 385 | 384 | 291
